According to patent US6579881B2 (Eisai Co., Ltd., priority 1997, dated 2003):
Counter-ions that a name gives are not always drawn. Like-named read-outs stand apart in the source and are kept apart here.

How the values were obtained:
[1] = test system: Straub's tail reaction (hyper-muscle tone in the tail); assay: Morphine induced Straub's tail phenomenon in mice; type: in vivo; conditions: Mus musculus, male ddY mice, 15 min before morphine hydrochloride 12.5 mg/kg s.c., statistically significant (p<0.05)
serotonin 1A receptor = target: T1, serotonin 1A receptor (Rattus norvegicus, UniProt P19327); assay: Binding test on [3H] 8-hydroxy-dipropylaminotetralin (serotonin 1A receptor); conditions: [3H] 8-OH-DPAT 0.5 nM, receptor fraction of rat hippocampus; read-out: 5HT1a
T1 construct: To the receptor fraction of the hippocampus were added a test compound and 0.5 nM of [^3H]; 8-hydroxy-dipropylaminotetralin; from tissue; host or cells: SD rat hippocampus, membrane (receptor) fraction
T1 sequence (P19327 1-422): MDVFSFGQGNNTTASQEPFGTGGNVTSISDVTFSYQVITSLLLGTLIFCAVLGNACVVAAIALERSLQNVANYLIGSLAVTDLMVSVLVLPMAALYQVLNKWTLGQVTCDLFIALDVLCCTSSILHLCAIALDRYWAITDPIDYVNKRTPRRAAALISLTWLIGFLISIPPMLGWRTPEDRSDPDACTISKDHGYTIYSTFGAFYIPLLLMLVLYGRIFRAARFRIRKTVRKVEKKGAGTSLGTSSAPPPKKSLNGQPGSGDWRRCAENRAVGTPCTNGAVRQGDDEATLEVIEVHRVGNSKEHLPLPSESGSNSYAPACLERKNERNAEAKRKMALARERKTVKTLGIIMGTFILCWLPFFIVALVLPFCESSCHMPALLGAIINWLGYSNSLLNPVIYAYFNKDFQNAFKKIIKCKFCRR

serotonin 2 receptor = serotonin 2 receptor (Rattus norvegicus, UniProt P14842); assay: Binding test on [3H] ketanserin (serotonin 2 receptor); conditions: [3H] ketanserin 0.3 nM, receptor fraction of rat cerebral cortex; read-out: 5HT2
serotonin 2 receptor, sequence (P14842 whole entry): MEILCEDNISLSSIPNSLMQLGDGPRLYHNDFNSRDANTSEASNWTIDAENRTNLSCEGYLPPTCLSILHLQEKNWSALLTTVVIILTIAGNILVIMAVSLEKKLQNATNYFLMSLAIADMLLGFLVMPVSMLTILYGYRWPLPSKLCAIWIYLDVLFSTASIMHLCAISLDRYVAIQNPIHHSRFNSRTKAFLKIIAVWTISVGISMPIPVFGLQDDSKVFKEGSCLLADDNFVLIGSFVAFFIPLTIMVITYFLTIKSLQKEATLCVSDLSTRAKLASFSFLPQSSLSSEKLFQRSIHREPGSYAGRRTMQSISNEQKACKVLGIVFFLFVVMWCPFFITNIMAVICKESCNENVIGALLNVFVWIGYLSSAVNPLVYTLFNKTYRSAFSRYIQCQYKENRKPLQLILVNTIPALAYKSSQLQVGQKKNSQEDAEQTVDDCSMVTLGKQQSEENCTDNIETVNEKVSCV

α1 adrenalin receptor = assay: Binding test on [3H] prazosin (α1 adrenalin receptor); set-up: species or system rat; conditions: [3H] prazosin about 0.2 nM, receptor fraction of rat cerebral cortex
[2] = ip, i.p., read-out: minimal effective dose i.p.
[3] = po, p.o., read-out: minimal effective dose p.o.

Row | Ki (serotonin 1A receptor) | Ki (serotonin 2 receptor) | Ki (α1 adrenalin receptor) | melting point | SMILES | minimal effective dose [1, 2] | minimal effective dose [1, 3]
1 | – | – | – | – | NCC(CC(=O)O)c1ccc(Cl)cc1 (stereo not drawn) [Baclofen, baclofen, reference compound] | 3 mg/kg | 10 mg/kg
2 | – | – | – | – | CN(C)CCC=C1c2ccccc2C=Cc2ccccc21 [Cyclobenzaprine, cyclobenzaprine hydrochloride, reference compound] | 10 mg/kg | –
3 | – | – | – | – | CN1CCC(=C2c3ccccc3C=Cc3ccccc32)CC1 [Cyproheptadine, cyproheptadine hydrochloride, reference compound] | 3 mg/kg | –
4 | 3 nM | 11.6 nM | 76.5 nM | – | Fc1ccc(CCN2CCC(N3CCc4ccccc43)CC2)cc1 [Example 9, 1-[1-(4-fluorophenethyl)piperidin-4-yl]indoline] | 10 mg/kg | –
5 | 24 nM | 12.2 nM | 113 nM | – | OCc1cccc(CCN2CCC(N3CCc4ccccc43)CC2)c1 [Example 22, 1-[1-(3-hydroxymethylphenethyl)piperidin-4-yl]indoline] | – | > 10 mg/kg
6 | 1.9 nM | 9.1 nM | – | – | O/N=C/c1ccc(CCN2CCC(N3CCc4ccccc43)CC2)cc1 [Example 34, 1-[1-(4-hydroxyiminomethylphenethyl)piperidin-4-yl]indoline] | ≤ 10 mg/kg | 30 mg/kg
7 | 4.5 nM | 14.9 nM | 39 nM | – | CC(=O)NCc1ccc(CCN2CCC(N3CCc4ccccc43)CC2)cc1 [Example 36, 1-[1-(4-acetamidomethylphenethyl)piperidin-4-yl]indoline] | 1 mg/kg | ≤ 3 mg/kg
8 | 35.8 nM | 5.7 nM | 230 nM | – | NS(=O)(=O)c1ccc(CCN2CCC(N3CCc4ccccc43)CC2)cc1 [Example 42, 1-[1-(4-sulfamoylphenethyl)piperidin-4-yl]indoline] | ≤ 10 mg/kg | 10 mg/kg
9 | 8.8 nM | 4.8 nM | – | – | COc1ncc(CCN2CCC(N3CCc4ccccc43)CC2)s1 [Example 65, 1-[1-(2-methoxy-5-thiazolyl)ethylpiperidin-4-yl]indoline] | – | 30 mg/kg
10 | 3.9 nM | 15.8 nM | 77.7 nM | – | Fc1ccc(CCN2CCC(N3CCc4ccc(F)cc43)CC2)cc1 [Example 103, 1-[1-(4-fluorophenethyl)piperidin-4-yl]-6-fluoroindoline] | ≤ 10 mg/kg | > 30 mg/kg
11 | 0.5 nM | 22.8 nM | 58.2 nM | – | OCCOc1ccc2c(c1)N(C1CCN(CCc3ccc(F)cc3)CC1)CC2 [Example 121, 1-[1-(4-fluorophenethyl)piperidin-4-yl]-6-hydroxyethoxyindoline] | – | 10 mg/kg
12 | 0.1 nM | 4.76 nM | 46.4 nM | – | NC(=O)c1ccc2c(c1)N(C1CCN(CCc3ccc(F)cc3)CC1)CC2 [Example 125, 1-[1-(4-fluorophenethyl)piperidin-4-yl]-6-carbamoylindoline] | 1 mg/kg | 3 mg/kg
13 | 0.65 nM | 6.68 nM | 126 nM | – | CC(O)c1ccc2c(c1)N(C1CCN(CCc3ccc(F)cc3)CC1)CC2 (stereo not drawn) [Example 137, 1-[1-(4-fluorophenethyl)piperidin-4-yl]-6-(1-hydroxyethyl)indoline] | – | 1 mg/kg
14 | 1.31 nM | 0.77 nM | 157 nM | – | NC(=O)Cc1ccc2c(c1)N(C1CCN(CCc3ccc(F)cc3)CC1)CC2 [Example 147, 1-[1-(4-fluorophenethyl)piperidin-4-yl]-6-carbamoylmethylindoline] | ≤ 0.3 mg/kg | ≤ 3 mg/kg
15 | 7.44 nM | 0.5 nM | 304 nM | – | CCNC(=O)Cc1ccc2c(c1)N(C1CCN(CCc3ccc(F)cc3)CC1)CC2 [Example 149, 1-[1-(4-fluorophenethyl)piperidin-4-yl]-6-(ethylcarbamoylmethyl)indoline] | 1 mg/kg | ≤ 3 mg/kg
16 | 8.84 nM | 0.57 nM | 292 nM | – | CC(C)NC(=O)Cc1ccc2c(c1)N(C1CCN(CCc3ccc(F)cc3)CC1)CC2 [Example 151, 1-[1-(4-fluorophenethyl)piperidin-4-yl]-6-(isopropylcarbamoylmethyl)indoline] | – | 3 mg/kg
17 | 0.98 nM | 27.1 nM | 223 nM | – | CNCc1ccc2c(c1)N(C1CCN(CCc3ccc(F)cc3)CC1)CC2 [Example 162, 1-[1-(4-fluorophenethyl)piperidin-4-yl]-6-N-methylaminomethylindoline] | 1 mg/kg | > 10 mg/kg
18 | 0.79 nM | 17.1 nM | 194 nM | – | CC(=O)NCCc1ccc2c(c1)N(C1CCN(CCc3ccc(F)cc3)CC1)CC2 [Example 166, 1-[1-(4-fluorophenethyl)piperidin-4-yl]-6-acetamidoethylindoline] | 3 mg/kg | 3 mg/kg
19 | 3.84 nM | 4.06 nM | 72.6 nM | – | CC(=O)N1CCC(Cc2ccc3c(c2)N(C2CCN(CCc4ccc(F)cc4)CC2)CC3)CC1 [Example 168, 1-[1-(4-fluorophenethyl)piperidin-4-yl]-6-[(1-acetylpiperidin-4-yl)methyl]indoline] | – | 10 mg/kg
20 | 4.28 nM | 2.91 nM | 70.1 nM | – | CC(c1ccc2c(c1)N(C1CCN(CCc3ccc(F)cc3)CC1)CC2)c1ccccn1 (stereo not drawn) [Example 182, 1-[1-(4-fluorophenethyl)piperidin-4-yl]-6-[1-(2-pyridyl)ethyl]indoline] | – | 10 mg/kg
21 | 15.1 nM | 3.06 nM | 188 nM | – | COc1ncccc1C(O)c1ccc2c(c1)N(C1CCN(CCc3ccc(F)cc3)CC1)CC2 (stereo not drawn) [Example 184, 1-[1-(4-fluorophenethyl)piperidin-4-yl]-6-[1-hydroxy-1-(2-methoxypyridin-3-yl)methyl]indoline] | – | 3 mg/kg
22 | 14.6 nM | 3.32 nM | – | – | COc1cccc(C(O)c2ccc3c(c2)N(C2CCN(CCc4ccc(F)cc4)CC2)CC3)n1 (stereo not drawn) [Example 186, 1-[1-(4-fluorophenethyl)piperidin-4-yl]-6-[1-hydroxy-1-(2-methoxypyridin-6-yl)methyl]indoline] | – | 10 mg/kg
23 | 7.72 nM | 2.02 nM | 442 nM | – | COc1ccc(Cc2ccc3c(c2)N(C2CCN(CCc4ccc(F)cc4)CC2)CC3)cn1 [Example 189, 1-[1-(4-fluorophenethyl)piperidin-4-yl]-6-[1-(2-methoxypyridin-5-yl)methyl]indoline] | – | 10 mg/kg
24 | 1.49 nM | 2.17 nM | – | – | O=C1NCCN1Cc1ccc2c(c1)N(C1CCN(CCc3ccc(F)cc3)CC1)CC2 [Example 206, 1-[1-(4-fluorophenethyl)piperidin-4-yl]-6-(2-imidazolidonyl)methylindoline] | – | 10 mg/kg
25 | 1.72 nM | 6.83 nM | 116 nM | 116.8 to 117.5 °C | OCc1ccc2ccn(C3CCN(CCc4ccccc4F)CC3)c2c1 [Example 391, 1-[1-(2-fluorophenethyl)piperidin-4-yl]-6-hydroxymethylindole] | – | –
26 | 0.85 nM | 2.54 nM | 37.8 nM | 171.9 to 172.8 °C | NC(=O)NCc1ccc2ccn(C3CCN(CCc4ccc(F)cc4)CC3)c2c1 [Example 393, 1-[1-(4-fluorophenethyl)piperidin-4-yl]-6-ureidomethylindole] | – | –
27 | 1.28 nM | 2.27 nM | 27.1 nM | 192 °C (dec.) | CNC(=O)NCc1ccc2ccn(C3CCN(CCc4ccc(F)cc4)CC3)c2c1 [Example 397, 1-[1-(4-fluorophenethyl)piperidin-4-yl]-6-(3-methylureido)methylindole] | – | –
28 | – | – | – | – | Clc1ccc2nsnc2c1NC1=NCCN1 [Tizanidine, tizanidine hydrochloride, reference compound] | 1 mg/kg | 1 mg/kg

Row | SMILES | Ki (serotonin 1A receptor) | Ki (serotonin 2 receptor) | Ki (α1 adrenalin receptor) | melting point | minimal effective dose [1, 2] | minimal effective dose [1, 3]
29 | COc1ccc2c(c1)N(C1CCN(CCc3ccc(F)cc3)CC1)CC2 [Example 106, 1-[1-(4-fluorophenethyl)piperidin-4-yl]-6-methoxyindoline] | 0.7 nM | 6.4 nM | 71.3 nM | – | 10 mg/kg | > 30 mg/kg
30 | CC(=O)NCc1ccc2c(c1)N(C1CCN(CCc3ccc(F)cc3)CC1)CC2 [Example 133, 1-[1-(4-fluorophenethyl)piperidin-4-yl]-6-acetamidomethylindoline] | 3.7 nM | 0.05 nM | 262 nM | – | 0.3 mg/kg | ≤ 0.3 mg/kg
